Data taken from US20240122941A1, “THERAPY BASED ON SYNTHETIC LETHALITY IN SWI/SNF COMPLEX-DYSFUNCTION CANCER” (NATIONAL CANCER CENTER, priority 2020, published 2024).
Where two headings read alike, the source gives them in different places.

Legend:
[1] = system: ARID1 deficient cancer cell group versus ARID1 wild-type cell group; assay: Experiment comparing sensitivity depending on the presence/absence of ARID1; assay type: cell-based; conditions: 6 days culture, CellTiter-Glo, FIG. 12; result in words
Source text: Cytotoxic activity of a CBP/P300 inhibitor on ARID1 deficient cancer cells, i.e., A2780 cells (ovarian cancer derived), RMG-V cells (ovarian cancer derived), TOV21G cells (ovarian cancer derived), and OVISE cells (ovarian cancer derived), and ARID1 wild-type cells, i.e., H1048 cells, H460 cells, 786-O cells, H2228 cells, H2009 cells, and H358 cells, was compared.

[2] = system: JMU-RTK-2+SMARCB1 cells (JMU-RTK-2 cells overexpressing SMARCB1); assay: Selectivity in cell growth suppression, JMU-RTK-2+SMARCB1 cells; conditions: 144 h
Source text: (§1) The cytotoxic activity of a CBP/P300 inhibitor on JMU-RTK-2 cells and JMU-RTK-2+SMARCB1 cells was compared.

[3] = system: H460 cells (pulmonary adenocarcinoma derived, SMARCA2/A4 wild-type); assay: Cell growth suppression experiment (CellTiter-Glo), H460 cells; assay type: cell-based; conditions: Homo sapiens, NCI-H460, 144 h; for viability at 10 µM: 6 days, read-out: cell survival rate (%) at treatment with 10 μM, H460; for IC50: cultured for 6 days, CellTiter-Glo;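 on all read-outs here: luminescent viability read-out, compound added one day after seeding at 0.1% final DMSO, cells grown in DMEM-F12 with 10% fetal bovine serum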
recombinant p300 = recombinant p300 (Homo sapiens (Human), UniProt Q09472); assay: HAT activity inhibiting experiment, SensoLyte HAT (p300) Assay Kit; assay type: biochemical; conditions: recombinant p300, acetyl-CoA, histone H3 peptide, fluorescence; read-out: HAT activity inhibition IC50
recombinant p300, sequence (Q09472 whole entry): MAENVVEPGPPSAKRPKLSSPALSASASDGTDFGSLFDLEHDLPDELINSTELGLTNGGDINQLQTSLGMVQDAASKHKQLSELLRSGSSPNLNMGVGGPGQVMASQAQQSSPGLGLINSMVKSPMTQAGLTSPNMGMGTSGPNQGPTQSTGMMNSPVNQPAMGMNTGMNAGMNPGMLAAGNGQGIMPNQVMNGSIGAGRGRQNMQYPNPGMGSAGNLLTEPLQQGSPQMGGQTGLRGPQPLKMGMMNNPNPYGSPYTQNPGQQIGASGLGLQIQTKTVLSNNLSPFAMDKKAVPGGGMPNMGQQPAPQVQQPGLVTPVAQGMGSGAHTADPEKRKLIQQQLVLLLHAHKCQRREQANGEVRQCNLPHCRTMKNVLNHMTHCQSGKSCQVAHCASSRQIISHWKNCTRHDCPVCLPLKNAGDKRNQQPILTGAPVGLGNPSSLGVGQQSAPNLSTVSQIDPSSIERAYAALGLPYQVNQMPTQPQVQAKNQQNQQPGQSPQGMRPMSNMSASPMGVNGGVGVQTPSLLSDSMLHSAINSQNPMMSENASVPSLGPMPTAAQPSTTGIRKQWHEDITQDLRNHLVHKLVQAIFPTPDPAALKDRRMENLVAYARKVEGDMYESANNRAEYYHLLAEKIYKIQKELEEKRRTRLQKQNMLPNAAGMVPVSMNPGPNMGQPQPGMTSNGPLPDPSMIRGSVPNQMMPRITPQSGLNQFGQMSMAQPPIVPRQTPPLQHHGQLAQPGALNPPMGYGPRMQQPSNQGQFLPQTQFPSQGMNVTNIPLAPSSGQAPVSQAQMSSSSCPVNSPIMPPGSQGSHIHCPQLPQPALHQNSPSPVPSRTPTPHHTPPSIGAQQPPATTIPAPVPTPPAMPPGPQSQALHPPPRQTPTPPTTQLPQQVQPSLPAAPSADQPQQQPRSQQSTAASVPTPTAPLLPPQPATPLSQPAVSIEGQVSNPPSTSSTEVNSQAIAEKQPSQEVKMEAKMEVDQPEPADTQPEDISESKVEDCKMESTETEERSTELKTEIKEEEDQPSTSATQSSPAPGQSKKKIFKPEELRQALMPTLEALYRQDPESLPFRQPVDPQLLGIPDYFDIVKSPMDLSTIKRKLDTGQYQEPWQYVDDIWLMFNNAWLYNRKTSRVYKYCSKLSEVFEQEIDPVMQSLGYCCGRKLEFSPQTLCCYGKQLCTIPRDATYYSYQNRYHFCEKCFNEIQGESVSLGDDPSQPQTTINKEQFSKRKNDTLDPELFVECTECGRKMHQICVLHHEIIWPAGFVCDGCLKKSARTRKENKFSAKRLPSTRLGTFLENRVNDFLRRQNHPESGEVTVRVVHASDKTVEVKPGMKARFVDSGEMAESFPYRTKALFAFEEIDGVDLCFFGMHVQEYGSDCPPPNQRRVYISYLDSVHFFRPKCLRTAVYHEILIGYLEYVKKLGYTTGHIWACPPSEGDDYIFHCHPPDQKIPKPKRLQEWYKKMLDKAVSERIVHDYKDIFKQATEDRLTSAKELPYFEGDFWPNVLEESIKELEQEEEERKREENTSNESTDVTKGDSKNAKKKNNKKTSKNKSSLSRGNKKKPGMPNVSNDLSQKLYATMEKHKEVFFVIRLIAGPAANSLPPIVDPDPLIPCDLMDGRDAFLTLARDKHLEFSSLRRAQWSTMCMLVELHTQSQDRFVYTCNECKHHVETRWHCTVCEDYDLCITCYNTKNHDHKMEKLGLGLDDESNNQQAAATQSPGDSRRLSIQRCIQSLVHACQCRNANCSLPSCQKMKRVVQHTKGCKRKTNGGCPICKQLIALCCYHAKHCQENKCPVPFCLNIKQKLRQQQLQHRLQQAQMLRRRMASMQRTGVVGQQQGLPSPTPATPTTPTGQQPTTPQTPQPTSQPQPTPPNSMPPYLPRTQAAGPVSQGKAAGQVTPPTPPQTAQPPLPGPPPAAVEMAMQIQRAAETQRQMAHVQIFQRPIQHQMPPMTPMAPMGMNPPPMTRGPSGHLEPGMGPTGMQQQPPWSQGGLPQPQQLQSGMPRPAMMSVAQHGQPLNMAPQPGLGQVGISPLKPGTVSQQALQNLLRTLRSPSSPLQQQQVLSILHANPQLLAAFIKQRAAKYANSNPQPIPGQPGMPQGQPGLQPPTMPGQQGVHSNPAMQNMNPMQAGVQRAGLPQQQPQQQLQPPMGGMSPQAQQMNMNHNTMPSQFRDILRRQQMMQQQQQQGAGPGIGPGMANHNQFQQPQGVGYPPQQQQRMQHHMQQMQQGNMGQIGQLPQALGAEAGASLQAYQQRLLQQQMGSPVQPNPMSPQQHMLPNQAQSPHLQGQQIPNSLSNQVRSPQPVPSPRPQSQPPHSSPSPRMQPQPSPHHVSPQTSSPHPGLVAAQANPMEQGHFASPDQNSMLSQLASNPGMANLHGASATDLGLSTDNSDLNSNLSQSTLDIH
Protocol: 50 μL of Stop Solution was added to quench the reaction. 100 μL of p300 Developer solution diluted 50-fold with an assay buffer was added, and the mixture was incubated for 30 minutes at room temperature under shaded conditions.

[4] = system: DMS114 cells (small cell lung cancer derived, SMARCA2/A4 deficient); assay: Cell growth suppression experiment (CellTiter-Glo), DMS114 cells; assay type: cell-based; conditions: for IC50: Homo sapiens, DMS-114, 144 h, cultured for 6 days, CellTiter-Glo; for cell growth suppression effect on DMS114 cells: result in words
[5] = system: SMARCB1 deficient cells, i.e., G-401 cells, G-402 cells, and CHLA-06-ATRT cells; assay: Cell growth suppression experiment, SMARCB1 deficient cells (summary of Example 1); conditions: G-401, G-402 and CHLA-06-ATRT cells versus 786-O cells; result in words
Protocol: (§2) G-401 cells and G-402 cells were cultured under the conditions of 5% CO2 at 37° C. in a 10% fetal bovine serum and 1% penicillin/streptomycin-containing McCoy's 5A medium. CHLA-06-ATRT cells were cultured under the conditions of 5% CO2 at 37° C. in a 10% B-27 supplement, 20 ng/mL EGF, 20 ng/mL FGF, and 1% penicillin/streptomycin-containing DMEM:F12 medium.

[6] = system: 786-O cells (renal cancer derived, SMARCB1 wild-type); assay: Cell growth suppression experiment (CellTiter-Glo), 786-O cells; conditions: Homo sapiens, 786-0, 72 h; for IC50: read-out: IC50 786-O; for viability at 10 µM: read-out: cell survival rate (%) at treatment with 10 μM, 786-O
Protocol: as §2

[7] = system: H23 cells (pulmonary adenocarcinoma derived, SMARCA2/A4 deficient); assay: Cell growth suppression experiment (CellTiter-Glo), H23 cells; assay type: cell-based; conditions: for IC50: Homo sapiens, NCI-H23, 144 h, cultured for 6 days, CellTiter-Glo; for cell survival rate (%) at treatment with 10 μM, H23: 6 days;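 on all read-outs here: compounds tested as CBP/P300 agents, added one day after plating in 96-well plates with DMEM-F12 plus 10% fetal bovine serum, 0.1% DMSO final, luminescent viability read-out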
[8] = system: G-401 cells (malignant rhabdoid tumor derived, SMARCB1 deficient); assay: Cell growth suppression experiment (CellTiter-Glo), G-401 cells; conditions: for IC50: Homo sapiens, G-401, 72 h; for cell survival rate (%) at treatment with 10 μM, G-401: G-401 cells, 10 μM (maximum treatment concentration), 3 days
Protocol: as §2

[9] = system: TOV112D cells (small cell ovarian cancer derived, SMARCA2/A4 deficient); assay: Cell growth suppression experiment (CellTiter-Glo), TOV112D cells; assay type: cell-based; conditions: for IC50: Homo sapiens, 144 h, cultured for 6 days, CellTiter-Glo; for cell survival rate (%) at treatment with 10 μM, TOV112D: 6 days;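 on all read-outs here: luminescent viability read-out of TOV112D cells grown in DMEM-F12 with 10% fetal bovine serum, compound exposure starting one day after plating, DMSO at 0.1% final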
[10] = system: JMU-RTK-2 cells (malignant rhabdoid tumor derived, SMARCB1 deficient); assay: Selectivity in cell growth suppression, JMU-RTK-2 cells; conditions: for IC50: 144 h; for Selective Index: IC50 of JMU-RTK-2+SMARCB1 cells with respect to IC50 of JMU-RTK-2 cells
Source text: as §1

[11] = system: SMARCA2/A4 deficient cells, i.e., H23 cells, DMS114 cells, and TOV112D cells; assay: Cell growth suppression experiment, SMARCA2/A4 deficient cells (summary of Example 8); assay type: cell-based; conditions: H23, DMS114 and TOV112D cells versus H460 cells; result in words
Protocol: Cytotoxic activity of a CBP/P300 on SMARCA2/A4 deficient cells, i.e., H23 cells (pulmonary adenocarcinoma derived), TOV112D cells (small cell ovarian cancer derived), and DMS114 cells (small cell lung cancer derived), and SMARCA2/A4 wild-type cells, i.e., H460 cells (pulmonary adenocarcinoma derived) was compared.
H23 cells, TOV112D cells, DMS114 cells, and H460 cells were cultured under 5% CO2 conditions at 37° C. in a 10% fetal bovine serum and 1% penicillin/streptomycin-containing DMEM-F12 medium.
Cells were seed on a 96-well plate at 250 to 500 cells per well. […] After completion of culture, the cell survival rate was measured using CellTiter-Glo Luminescent Cell Viability Assay (Promega, G770).

CBP bromodomain = CBP bromodomain (Homo sapiens (Human), UniProt Q92793); assay: BRD inhibition experiment, CBP bromodomain TR-FRET Assay Kit
CBP bromodomain, sequence (Q92793 1085-1192): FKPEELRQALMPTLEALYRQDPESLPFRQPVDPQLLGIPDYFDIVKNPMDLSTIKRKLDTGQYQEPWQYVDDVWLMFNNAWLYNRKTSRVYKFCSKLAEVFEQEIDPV

[12] = system: CHLA-06-ATRT cells (atypical teratoid/rhabdoid tumor derived, SMARCB1 deficient); assay: Cell growth suppression experiment (CellTiter-Glo), CHLA-06-ATRT cells; conditions: 72 h, read-out: IC50 CHLA-06-ATRT
Protocol: as §2

[13] = system: SMARCB1 deficient cell group versus SMARCB1 wild-type cell group; assay: Experiment comparing sensitivity depending on the presence/absence of SMARCB1; assay type: cell-based; conditions: 6 days culture, CellTiter-Glo, FIG. 3; result in words
Source text: Cytotoxic activity of a CBP/P300 inhibitor on SMARCB1 deficient cells, i.e., G-401 cells (malignant rhabdoid tumor derived), G-402 cells (malignant rhabdoid tumor derived), JMU-RTK-2 cells (malignant rhabdoid tumor derived), and HS-EU-1 cells (epithelioid sarcoma derived), and SMARCB1 wild-type cells, i.e., 786-O cells (renal cancer derived), VMRC-RCZ cells (renal cancer derived), Caki-1 cells (renal cancer derived), H446 cells (lung cancer derived), ES2 cells (ovarian cancer derived), H460 cells (lung cancer derived), H2228 cells (lung cancer derived), HEK293T cells (normal kidney tissue derived), and H358 cells (lung cancer derived) was compared.

[14] = system: histone H3K27 acetylation in G-401 cells and CHLA-06-ATRT cells; assay: Intracellular histone H3K27 acetylation inhibition experiment (Western blotting); assay type: cell-based; conditions: G-401 and CHLA-06-ATRT cells, 24 hours, FIG. 7
Protocol: G-401 cells (malignant rhabdoid tumor derived) and CHLA-06-ATRT cells (atypical teratoid/rhabdoid tumor derived) were seeded on a 6-well plate at 500000 cells per well. […] After completion of culture, the cells were detached through trypsin treatment. The culture was centrifuged and the supernatant was removed to recover cell pellets. 150 μL of RIPA buffer was added to the cell pellets to lyse the cells to extract the entire protein. Acetylation of histone H3K27 was detected by Western blotting. An anti-acetylation H3K27 antibody (Cell Signaling Technology, 8173) was used for the detection of acetylated H3K27 (FIG. 7).

[15] = read-out: JMU-RTK-2 + SMARCB1 IC50
[16] = read-out: JMU-RTK-2 + SMARCB1 IC50, JMU-RTK-2+SMARCB1 cells, cultured for 6 days, CellTiter-Glo
[17] = read-out: IC50 G-401, G-401 cells, cultured for 3 days, CellTiter-Glo cell survival
[18] = read-out: JMU-RTK-2 IC50, JMU-RTK-2 cells, cultured for 6 days, CellTiter-Glo

| SMILES | IC50 [2, 15] [µM] | viability at 10 µM [3] [%] | IC50 [3] [µM] | IC50 (recombinant p300) [nM] | IC50 ([4]; DMS114 cells) [nM] | cell growth suppression effect on SMARCB1 deficient cells [5] | IC50 [6] [µM] | viability at 10 µM [6] [%] | IC50 [7] [nM] | IC50 ([8]; read-out: IC50 G-401) [nM] | IC50 [9] [nM] | IC50 ([10]; read-out: JMU-RTK-2 IC50) [nM] | Selective Index [10] | cell growth suppression effect on SMARCA2/A4 deficient cells [11] | further results |
| --- | --- | --- | --- | --- | --- | --- | --- | --- | --- | --- | --- | --- | --- | --- | --- |
| CO[C@H]1CC[C@H](n2c([C@@H]3CCCC(=O)N3c3ccc(F)c(F)c3)nc3cc(-c4c(C)noc4C)ccc32)CC1 [CCS-1477, reference compound] |  |  |  |  |  |  |  |  |  |  |  |  |  |  | IC50 value for the ARID1 deficient cancer cell group compared with the ARID1 wild-type cell group [1]: less than the IC50 value for the ARID1 wild-type cell group |
| O=C(Nc1ccc2[nH]ncc2n1)C1CC(F)CN1C(=O)C1(c2ccc(OC(F)F)cc2)CCC(F)(F)CC1 (stereo not shown) [Compound 5] | 8.8 | 99 | > 10 | 100 | 408 | selective and potent Cell growth suppression effect | > 10 | 102 | 1420 | 440 | 1500 | 200 | 45.3 | particularly selective and potent cell growth suppression effect |  |
| CCN(CC)c1ccc(-c2nc3cc(C(=O)NC)ccc3n2Cc2ccn(CC)n2)cn1 [Compound 6] | 1.3 | 92 | > 10 | 160 | 138 | selective and potent Cell growth suppression effect | > 10 | 83 | 1130 | 260 | 729 | 55 | 23.5 | particularly selective and potent cell growth suppression effect |  |
| CNC(=O)N1CCc2c(c(N3CCCc4cc(-c5cnn(C)c5)c(C(F)F)cc43)nn2C2CCOCC2)C1 [Compound 8] |  | 101 | > 10 |  | 4010 |  | > 10 | 92 | > 10000 |  |  |  |  |  | IC50 [2, 16]: 9.1 µM; cell growth suppression effect on DMS114 cells [4]: cell growth suppression effect; cell survival rate (%) at treatment with 10 μM, H23 [7]: 77%; cell survival rate (%) at treatment with 10 μM, G-401 [8]: 65%; IC50 [8, 17]: > 10000 nM; cell survival rate (%) at treatment with 10 μM, TOV112D [9]: 91%; IC50 ([9]; TOV112D): > 10000 nM; IC50 [10, 18]: 900 nM; IC50 (CBP bromodomain): < 25 nM |
| Cn1cc(C(=O)Nc2ccc3c(c2)OCCO3)c2ccccc2c1=O [Compound 12] | 14.9 | 100 | > 10 |  | > 10000 |  | > 10 | 104 | > 10000 | > 10000 | > 10000 | 3900 | 3.9 |  | cell survival rate (%) at treatment with 10 μM, DMS114 ([4]; DMS114 cells, 10 μM, 6 days): 86%; cell growth suppression effect on DMS114 cells [4]: cell growth suppression effect; cell survival rate (%) at treatment with 10 μM, H23 [7]: 97%; cell survival rate (%) at treatment with 10 μM, G-401 [8]: 83%; cell survival rate (%) at treatment with 10 μM, TOV112D [9]: 99%; IC50 (CBP bromodomain): < 25 nM |
| C[C@H](N(Cc1ccc(F)cc1)C(=O)CN1C(=O)N[C@]2(CCc3cc(-c4cnn(C)c4)ccc32)C1=O)C(F)(F)F [Compound 14] |  | 89 | > 10 |  | 330 | selective and potent Cell growth suppression effect | > 10 | 74 | 1260 |  |  |  |  | particularly selective and potent cell growth suppression effect | IC50 [2, 16]: 5.2 µM; IC50 [8, 17]: 150 nM; IC50 [12]: 1300 nM; IC50 ([9]; TOV112D): 1020 nM; IC50 [10, 18]: 12 nM |
| Cn1cc(-c2ccc3c(c2)CC[C@]32NC(=O)N(CC(=O)N3Cc4cc(F)ccc4OC[C@H]3C(F)(F)F)C2=O)cn1 [Compound 15] | 3.4 | 78 | > 10 | 48 | 90.9 | selective and potent Cell growth suppression effect | > 10 | 51 | 407 | 41 | 309 | 3.8 | 912 | particularly selective and potent cell growth suppression effect | IC50 [12]: 420 nM |
| COc1ccc(CCc2nc3cc(-c4c(C)noc4C)ccc3n2C[C@H](C)N2CCOCC2)cc1Cl [SGC-CBP30, reference compound] |  |  |  |  |  |  |  |  |  |  |  |  |  |  | IC50 value for the SMARCB1 deficient cell group compared with the SMARCB1 wild-type cell group [13]: less than the IC50 value for the SMARCB1 wild-type cell group; intracellular histone H3K27 acetylation [14]: reduced treatment concentration dependent intracellular histone H3K27 acetylation |
